Laboratory results: US20240366612A1, “COMPOUNDS AND METHODS FOR MODULATING NUCLEIC ACID SPLICING” (REMIX THERAPEUTICS INC., priority 2021, published 2024)
Structures can show the parent of a compound that is named as a salt.

Assays:
Assay type in all cases: cell-based
MYB mRNA = assay: Splicing RT-qPCR assay, MYB canonical (CJ) and alternative (AJ) junction mRNA; conditions: Homo sapiens, A673 or K562 cells, 24 hours treatment; for IC50: decrease in CJ mRNA; for AC50: increase in AJ mRNA
Procedure: (§1) Compounds described herein were used to modulate RNA transcript abundance in cells. The expression of a target mRNA was measured by detecting the formation of an exon-exon junction in the canonical transcript (CJ). A compound mediated exon-inclusion event was detected by observing an increase in formation of a new junction with an alternative exon (AJ). Real-time qPCR assays were used to detect these splicing switches and interrogate the potency of various compounds towards different target genes. A high-throughput real time quantitative PCR (RT-qPCR) assay was developed to measure these two isoforms of the mRNA (CJ and AJ) for exemplary genes, such as HTT, SMN2, and MYB, together with a control housekeeping gene, GAPDH or GUSB or PPIA, used for normalization. Briefly, the A673 or K562 cell line was treated with various compounds described herein (e.g., compounds of Formula (I)). After treatment, the levels of the HTT, MYB, or SMN2 mRNA targets were determined from each sample of cell lysate by cDNA synthesis followed by qPCR.
• Cells-to-CT 1-step kit: ThermoFisher A25602, Cells-to-CT lysis reagent: ThermoFisher 4391851C, TaqMan™ Fast Virus 1-Step Master Mix: ThermoFisher 4444436 • GAPDH: VIC-PL, ThermoFisher 4326317E (Assay: Hs99999905_ml)—used for K562/suspension cell lines • GUSB: VIC-PL, ThermoFisher 4326320E (Assay: Hs99999908_ml)—used for K562/suspension cell lines • PPIA: VIC-PL, ThermoFisher 4326316E (Assay: Hs99999904_ml)—used for A673/adherent cell lines
(§2) The A673 cell line was cultured in DMEM with 10% FBS. Cells were diluted with full growth media and plated in a 96-well plate (15,000 cells in 100 ul media per well). The plate was incubated at 37° C. with 5% CO2 for 24 hours to allow cells to adhere. An 11-point 3-fold serial dilution of the compounds was made in DMSO then diluted in media in an intermediate plate. Compounds were transferred from the intermediate plate to the cell plate with the top dose at a final concentration of 10 uM in the well. Final DMSO concentration was kept at or below 0.25%. The cell plate was returned to the incubator at 37° C. with 5% CO2 for an additional 24 hours.
(§3) The K562 cell line was cultured in IMDM with 10% FBS. For K562, cells were diluted with full growth media and plated in either a 96-well plate (50,000 cells in 50 uL media per well) or a 384-well plate (8,000-40,000 cells in 45 uL media per well). An 11-point 3-fold serial dilution of the compounds were made in DMSO then diluted in media in an intermediate plate. Compound was transferred from the intermediate plate to the cell plate with the top dose at a final concentration of 10 uM in the well. Final DMSO concentration was kept at or below 0.25%. Final volume was 100 uL for 96-well plate and 50 uL for 384-well plate. The cell plate was then placed in an incubator at 37° C. with 5% CO2 for 24 hours.
The cells were then gently washed with 50 uL-100 uL cold PBS before proceeding to addition of lysis buffer. 30 uL-50 μL of room temperature lysis buffer with DNAse I (and optionally RNAsin) was added to each well. Cells were shaken/mixed thoroughly at room temperature for 5-10 minutes for lysis to take place and then 3 uL-5 μL of room temperature stop solution was added and wells were shaken/mixed again. After 2-5 minutes, the cell lysate plate was transferred to ice for RT-qPCR reaction setup. The lysates could also be frozen at −80° C. for later use.
In some cases, a direct lysis buffer was used. An appropriate volume of 3×lysis buffer (10 mM Tris, 150 mM NaCl, 1.5%-2.5% Igepal and 0.1-1 U/uL RNAsin, pH 7.4) was directly added to either K562 or A673 cells in media and mixed by pipetting 3 times. The plates were then incubated at room temperature with shaking/rocking for 20-50 minutes to allow for lysis to take place. After this time, the cell lysate plate was transferred to ice to set up for the RT-qPCR reactions. The lysates could also be frozen at −80° C. for later use. […]

SMN2 CJ mRNA = assay: Gene panel canonical junction qPCR assay, SMN2; conditions: Homo sapiens, larger gene panel, read-out: SMN2 IC50 (decrease in CJ mRNA levels)
Procedure: as §1, §2, §3
(§4) The data analysis was performed by first determining the ΔCt vs the housekeeper gene. This ΔCt was then normalized against the DMSO control (ΔΔCt) and converted to RQ (relative quantification) using the 2^(−ΔΔCt) equation. The RQ were then converted to a percentage response by arbitrarily setting an assay window of 3.5 and 4.0 ΔCt for HTT-CJ and MYB-CJ respectively and an assay window of 9 and 3 ΔCt for HTT-AJ and MYB-AJ in 96 well format (50,000 K562 cells/well and 15,000 A673 cells per well) and an assay window of 3 and 4 ΔCt for HTT-CJ and MYB-CJ respectively and an assay window of 5 and 3 ΔCt for HTT-AJ and MYB-AJ respectively in 384 well format (8,000 K562 cells/well example). […] The percentage response was then fitted to the 4 parametric logistic equation to evaluate the concentration dependence of compound treatment. The increase in AJ mRNA is reported as AC50 (compound concentration having […] in AJ increase) while the decrease in CJ mRNA levels is reported as IC50 (compound concentration having 50% response in CJ decrease).
(§5) Additional studies were carried out for a larger panel of genes using the protocol provided above. The junction between flanking upstream and downstream exons was used to design canonical junction qPCR assays. At least one of the forward primer, reverse primer or the CY5-labeled 5′ nuclease probe (with 3′ quencher such as ZEN/Iowa Black FQ) was designed to overlap with the exon junction to capture the CJ mRNA transcript. […]

HTT CJ mRNA = assay: Gene panel canonical junction qPCR assay, HTT; conditions: Homo sapiens, larger gene panel, read-out: HTT IC50 (decrease in CJ mRNA levels)
Procedure: as §1, §2, §3, §4, §5

Row | IC50 (MYB mRNA) [nM] | IC50 (SMN2 CJ mRNA) [nM] | IC50 (HTT CJ mRNA) [nM] | SMILES | AC50 (MYB mRNA) [nM]
1 | 1000 to 10000 | < 100 | 1000 to 10000 | Cc1cn2cc(-c3cc4ncn([C@H]5CCNC[C@@H]5F)c(=O)c4s3)cc(F)c2n1 (relative stereo) [Compound 272, trans-6-{8-fluoro-2-methylimidazo[1,2-a]pyridin-6-yl}-3-[3-fluoropiperidin-4-yl]thieno[3,2-d]pyrimidin-4-one] | 1000 to 10000
2 | 100 to 1000 | 100 to 1000 | 100 to 1000 | Cc1cn2cc(-c3cc4ncn([C@H]5CCNC[C@H]5F)c(=O)c4s3)cc(F)c2n1 (relative stereo) [Compound 273, cis-6-{8-fluoro-2-methylimidazo[1,2-a]pyridin-6-yl}-3-[3-fluoropiperidin-4-yl]thieno[3,2-d]pyrimidin-4-one] | 100 to 1000
3 | 100 to 1000 | < 100 | 100 to 1000 | Cc1cn2cc(-c3cc4ncn([C@H]5CCN[C@H](C)C5)c(=O)c4s3)cc(F)c2n1 (relative stereo) [Compound 277, 6-{8-fluoro-2-methylimidazo[1,2-a]pyridin-6-yl}-3-[(trans)-2-methylpiperidin-4-yl]thieno[3,2-d]pyrimidin-4-one] | 100 to 1000
4 | 100 to 1000 | < 100 | 100 to 1000 | Cc1cn2cc(-c3cc4ncn([C@H]5CCN[C@@H](C)C5)c(=O)c4s3)cc(F)c2n1 (relative stereo) [Compound 278, 6-{8-fluoro-2-methylimidazo[1,2-a]pyridin-6-yl}-3-[(cis)-2-methylpiperidin-4-yl]thieno[3,2-d]pyrimidin-4-one hydrochloride] | 100 to 1000
5 | > 10000 | > 10000 | > 10000 | Cc1cc(-c2cc(=O)n3cc(N4CCN(C)CC4)sc3n2)cc2cn(C)nc12 [Compound 109, 7-(2,7-dimethyl-2H-indazol-5-yl)-2-(4-methylpiperazin-1-yl)-5H-thiazolo[3,2-a]pyrimidin-5-one] | 1000 to 10000
6 | > 10000 | > 10000 | > 10000 | Cc1cc(-c2cc(=O)n3nc(N4CCN(C)CC4)sc3n2)cc2cn(C)nc12 [Compound 157, 7-(2,7-dimethyl-2H-indazol-5-yl)-2-(4-methylpiperazin-1-yl)-5H-[1,3,4]thiadiazolo[3,2-a]pyrimidin-5-one] | > 10000
7 | 1000 to 10000 | 1000 to 10000 | 1000 to 10000 | Cc1cn2cc(-c3cc(=O)n4nc(N5CCN(C)CC5)sc4n3)cc(F)c2n1 [Compound 159, 7-(8-fluoro-2-methylimidazo[1,2-a]pyridin-6-yl)-2-(4-methylpiperazin-1-yl)-5H-[1,3,4]thiadiazolo[3,2-a]pyrimidin-5-one] | 1000 to 10000
8 | 1000 to 10000 | 100 to 1000 | 1000 to 10000 | Cc1cc(-c2nn3c(=O)cc(N4CCNCC4)nc3s2)cc2cn(C)nc12 [Compound 206, 2-(2,7-dimethyl-2H-indazol-5-yl)-7-(piperazin-1-yl)-5H-[1,3,4]thiadiazolo[3,2-a]pyrimidin-5-one] | 1000 to 10000
9 | 1000 to 10000 | 100 to 1000 | > 10000 | Cc1cn2cc(-c3cc(=O)n4cc(N5CCNC6(CC6)C5)sc4n3)cc(F)c2n1 [Compound 207, 7-(8-fluoro-2-methylimidazo[1,2-a]pyridin-6-yl)-2-(4,7-diazaspiro[2.5]octan-7-yl)-5H-thiazolo[3,2-a]pyrimidin-5-one] | > 10000
10 | 1000 to 10000 | 1000 to 10000 | 1000 to 10000 | Cc1cn2cc(-c3cn4c(=O)cc(N5CCNC6(CC6)C5)nc4s3)cc(F)c2n1 [Compound 208, 2-(8-fluoro-2-methylimidazo[1,2-a]pyridin-6-yl)-7-(4,7-diazaspiro[2.5]octan-7-yl)-5H-thiazolo[3,2-a]pyrimidin-5-one] | 1000 to 10000
11 | 1000 to 10000 | 1000 to 10000 | 1000 to 10000 | Cc1cn2cc(-c3cc(=O)n4nc(N5CCNC6(CC6)C5)sc4n3)cc(F)c2n1 [Compound 209, 7-(8-fluoro-2-methylimidazo[1,2-a]pyridin-6-yl)-2-(4,7-diazaspiro[2.5]octan-7-yl)-5H-[1,3,4]thiadiazolo[3,2-a]pyrimidin-5-one] | 1000 to 10000
12 | 1000 to 10000 | 1000 to 10000 | 1000 to 10000 | Cc1cc(-c2nn3c(=O)cc(N4CCN(C)CC4)nc3s2)cc2cn(C)nc12 [Compound 210, 2-(2,7-dimethyl-2H-indazol-5-yl)-7-(4-methylpiperazin-1-yl)-5H-[1,3,4]thiadiazolo[3,2-a]pyrimidin-5-one] | 1000 to 10000
13 | 1000 to 10000 | 100 to 1000 | 1000 to 10000 | Cc1cn2nc(-c3cc(=O)n4cc(N5CCNC6(CC6)C5)sc4n3)cc(C)c2n1 [Compound 211, 7-(2,8-dimethylimidazo[1,2-b]pyridazin-6-yl)-2-(4,7-diazaspiro[2.5]octan-7-yl)-5H-thiazolo[3,2-a]pyrimidin-5-one] | 100 to 1000
14 | 1000 to 10000 | 1000 to 10000 | 1000 to 10000 | Cc1cn2nc(-c3cn4c(=O)cc(N5CCNC6(CC6)C5)nc4s3)cc(C)c2n1 [Compound 212, 2-(2,8-dimethylimidazo[1,2-b]pyridazin-6-yl)-7-(4,7-diazaspiro[2.5]octan-7-yl)-5H-thiazolo[3,2-a]pyrimidin-5-one] | 1000 to 10000
15 | > 10000 | 1000 to 10000 | > 10000 | Cc1cn2cc(-c3cn4c(=O)cc(N5CCNCC5)nc4s3)cc(F)c2n1 [Compound 213, 2-(8-fluoro-2-methylimidazo[1,2-a]pyridin-6-yl)-7-(piperazin-1-yl)-5H-thiazolo[3,2-a]pyrimidin-5-one] | > 10000

Row | SMILES | IC50 (MYB mRNA) [nM] | IC50 (SMN2 CJ mRNA) [nM] | IC50 (HTT CJ mRNA) [nM] | AC50 (MYB mRNA) [nM]
16 | Cc1cn2nc(-c3cc(=O)n4cc(N(C)C5CC(C)(C)NC(C)(C)C5)sc4n3)cc(C)c2n1 [Compound 205, 7-(2,8-dimethylimidazo[1,2-b]pyridazin-6-yl)-2-(methyl(2,2,6,6-tetramethylpiperidin-4-yl)amino)-5H-thiazolo[3,2-a]pyrimidin-5-one] | 1000 to 10000 | 1000 to 10000 | 1000 to 10000 | 1000 to 10000
